ChEMBL document CHEMBL1201861, “Genomics of Drug Sensitity in Cancer screening data, Wellcome Trust Sanger Institute”

Key:
Experiment in all cases: cells
Details in all cases: Homo sapiens
NEC8 = format: functional, cell-based;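 note: growth inhibition of human NEC8 cells, read out by a cell viability assay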
HCC2218 = format: functional, cell-based;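 note: cell viability assay read-out, with IC50 given as the concentration that inhibits growth of the cell line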
SH-4 = format: functional, cell-based;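 note: growth inhibition of SH-4 cells, read out with a cell viability assay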
NOS-1 = format: functional, cell-based;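 note: growth inhibition of the human NOS-1 cell line, read out with a cell viability assay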
EW-16 = format: functional, cell-based;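 note: growth inhibition of human EW-16 cells, read out as cell viability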
NCI-H1770 = format: functional, cell-based;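 note: growth inhibition of NCI-H1770 cells determined with a viability readout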
EW-11 = format: functional, cell-based;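 note: growth inhibition of human EW-11 cells, measured with a cell viability assay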
C2BBe1 = format: functional, cell-based;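 note: growth inhibition of C2BBe1 cells, read out through a viability assay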
J-RT3-T3-5 = format: functional, cell-based;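 note: cell viability assay measuring growth inhibition of human J-RT3-T3-5 cells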
HAL-01 = format: functional, cell-based;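 note: growth inhibition of human HAL-01 cells, read out with a cell viability assay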
HDLM-2 = format: functional, cell-based;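 note: cell viability assay measuring suppression of HDLM-2 proliferation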
TE-1 = format: functional, cell-based
KE-37 = format: functional, cell-based;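 note: growth inhibition of KE-37 cells, read out with a cell viability assay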
COLO-684 = format: functional, cell-based
no-11 = format: functional, cell-based;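 note: growth inhibition of human NO-11 cells, read out with a cell viability assay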
KM-H2 = format: functional, cell-based;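 note: growth inhibition of KM-H2 cells, read out by a cell viability assay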
COLO-824 = format: functional, cell-based
ATN-1 = format: functional, cell-based;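 note: growth inhibition of human ATN-1 cells, read out with a cell viability assay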
SHP77 = format: functional, cell-based, SHP-77;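 note: growth inhibition of human SHP-77 cells measured by a cell viability assay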
NCI-H747 = format: functional, cell-based;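 note: growth inhibition of human NCI-H747 cells, read out by a cell viability assay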
NB10 = format: functional, cell-based;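 note: growth inhibition of NB10 cells, read out by a cell viability assay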
EW-3 = format: functional, cell-based;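 note: cell viability assay read-out, IC50 reflects inhibition of growth of the EW-3 cells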
HD-MY-Z = format: functional, cell-based;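 note: growth inhibition of HD-MY-Z cells, read out with a cell viability assay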
GAK = format: functional, cell-based
MHH-NB-11 = format: functional, cell-based;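 note: growth inhibition of human MHH-NB-11 cells, read out by a cell viability assay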
SW684 = format: functional, cell-based;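 note: growth inhibition of human SW684 cells, measured by a cell viability assay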
TGBC1TKB = format: functional, cell-based;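 note: growth inhibition of TGBC1TKB cells, read out by a cell viability assay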
SW872 = format: functional, cell-based;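 note: growth inhibition of SW872 cells, read out by a viability assay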
ES8 = format: functional, cell-based;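 note: growth inhibition of human ES8 cells, read out with a cell viability assay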
KNS-81-FD = format: functional, cell-based;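 note: growth inhibition of KNS-81-FD cells, read out with a cell viability assay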
K5 = format: functional, cell-based
NCI-H69 = format: functional, cell-based;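 note: growth inhibition of the cell line, read out with a cell viability assay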
A498 = format: functional, cell-based;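 note: growth inhibition of human A498 cells, read out with a cell viability assay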
LAMA-84 = format: functional, cell-based;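 note: growth inhibition of LAMA-84 cells, read out with a cell viability assay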
SW 954 = format: functional, cell-based;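 note: growth inhibition of SW954 human cancer cells, read out as cell viability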
KU812 cell line = format: functional, cell-based;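 note: growth inhibition of KU812 cells, read out with a cell viability assay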
ES6 = format: functional, cell-based;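 note: growth inhibition of human ES6 cells, read out with a cell viability assay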
IST-MEL1 = format: functional, cell-based;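 note: growth inhibition of the cell line, read out with a cell viability assay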
COR-L88 = format: functional, cell-based;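 note: growth inhibition of COR-L88 cells, read out with a cell viability assay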
TE-12 = format: functional, cell-based;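 note: growth inhibition of TE-12 cells, read out by a cell viability assay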
no-10 = format: functional, cell-based;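 note: growth inhibition of no-10 cells, read out with a cell viability assay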
HEL = format: functional, cell-based;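 note: growth inhibition of HEL cells, read out with a cell viability assay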
A704 = format: functional, cell-based;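 note: growth inhibition of human A704 cells, read out with a cell viability assay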
SF-126 = format: functional, cell-based;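 note: growth inhibition of human SF126 cells, read out with a cell viability assay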
MPP-89 = format: functional, cell-based;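 note: growth inhibition of human MPP-89 cells, read out with a cell viability assay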
SNU1 = format: functional, cell-based;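 note: growth inhibition of human NCI-SNU-1 cells, measured with a cell viability assay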
GI-1 = format: functional, cell-based;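 note: growth inhibition of human GI-1 cells, measured with a cell viability readout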
AM-38 = format: functional, cell-based;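 note: growth inhibition of AM-38 cells of human origin, read out by a cell viability assay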
COLO-668 = format: functional, cell-based
QIMR-WIL = format: functional, cell-based;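 note: growth inhibition of QIMR-WIL cells, read out with a cell viability assay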
LNCaP-Clone-FGC = format: functional, cell-based
IST-MES1 = format: functional, cell-based;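 note: growth inhibition of IST-MES1 cells, measured with a cell viability assay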
RH-1 = format: functional, cell-based;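 note: growth inhibition of human RH-1 cells, read out with a cell viability assay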
SCH = format: functional, cell-based;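 note: growth inhibition of human SCH cells, read out in a cell viability assay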
SBC-1 = format: functional, cell-based;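 note: cell viability assay measuring growth inhibition of the SBC-1 cell line, IC50 being the concentration that halves growth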
D-263MG = format: functional, cell-based
TE-5 = format: functional, cell-based;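 note: inhibition of cell growth, read out by a cell viability assay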
COLO-800 = format: functional, cell-based
EW-13 = format: functional, cell-based
Lu-65 = format: functional, cell-based
DOHH-2 = format: functional, cell-based
SK-MEL-2 = format: functional, cell-based
NCI-H23 = format: functional, cell-based
U-87 MG = format: functional, cell-based, U-87MG ATCC
ETK-1 = format: functional, cell-based
EKVX = format: functional, cell-based

Question: What does the source list for `COc1cc(Nc2c(C#N)cnc3cc(OCCCN4CCN(C)CC4)c(OC)cc23)c(Cl)cc1Cl` [BOSUTINIB]?
Answer: IC50 (NEC8): > 2 µM; IC50 (HCC2218): > 2 µM; IC50 (SH-4): > 2 µM; IC50 (NOS-1): > 2 µM; IC50 (EW-16): 1.44 µM; IC50 (NCI-H1770): > 2 µM; IC50 (EW-11): > 2 µM; IC50 (C2BBe1): > 2 µM; IC50 (J-RT3-T3-5): 1.52 µM; IC50 (HAL-01): 1.09 µM; IC50 (HDLM-2): > 2 µM; IC50 (TE-1): > 2 µM; IC50 (KE-37): 0.495 µM; IC50 (COLO-684): > 2 µM; IC50 (no-11): > 2 µM; IC50 (KM-H2): > 2 µM; IC50 (COLO-824): > 2 µM; IC50 (ATN-1): > 2 µM; IC50 (SHP77): > 2 µM; IC50 (NCI-H747): > 2 µM; IC50 (NB10): > 2 µM; IC50 (EW-3): 0.559 µM; IC50 (HD-MY-Z): 1.64 µM; IC50 (GAK): […]; IC50 (MHH-NB-11): 1.31 µM; IC50 (SW684): > 2 µM; IC50 (TGBC1TKB): > 2 µM; IC50 (SW872): > 2 µM; IC50 (ES8): > 2 µM; IC50 (KNS-81-FD): > 2 µM; IC50 (K5): > 2 µM; IC50 (NCI-H69): > 2 µM; IC50 (A498): 1.4 µM; IC50 (LAMA-84): 0.287 µM; IC50 (SW 954): 1.55 µM; IC50 (KU812 cell line): 0.341 µM; IC50 (ES6): > 2 µM; IC50 (IST-MEL1): > 2 µM; IC50 (COR-L88): > 2 µM; IC50 (TE-12): > 2 µM; IC50 (no-10): > 2 µM; IC50 (HEL): > 2 µM; IC50 (A704): > 2 µM; IC50 (SF-126): > 2 µM; IC50 (MPP-89): > 2 µM; IC50 (SNU1): > 2 µM; IC50 (GI-1): > 2 µM; IC50 (AM-38): > 2 µM; IC50 (COLO-668): > 2 µM; IC50 (QIMR-WIL): 1.09 µM; IC50 (LNCaP-Clone-FGC): > 2 µM; IC50 (IST-MES1): > 2 µM; IC50 (RH-1): > 2 µM; IC50 (SCH): > 2 µM; IC50 (SBC-1): > 2 µM; IC50 (D-263MG): > 2 µM; IC50 (TE-5): > 2 µM; IC50 (COLO-800): > 2 µM; IC50 (EW-13): > 2 µM; IC50 (Lu-65): > 2 µM; IC50 (DOHH-2): > 2 µM; IC50 (SK-MEL-2): > 2 µM; IC50 (NCI-H23): > 2 µM; IC50 (U-87 MG): > 2 µM; IC50 (ETK-1): > 2 µM; IC50 (EKVX): > 2 µM

Question: How did the IC50 (NEC8) turn out when `Cc1nc(Nc2ncc(C(=O)Nc3c(C)cccc3Cl)s2)cc(N2CCN(CCO)CC2)n1` [DASATINIB] was run?
Answer: The IC50 was greater than 1.28 µM.

Question: What about the IC50 (HCC2218) of the same molecule?
Answer: The IC50 was greater than 1.28 µM.

Question: What about the IC50 (SH-4) of the same molecule?
Answer: The IC50 was 0.184 µM.

Question: What about the IC50 (NOS-1) of the same molecule?
Answer: Its IC50 is 0.00613 µM.

Question: What about the IC50 (EW-16) of the same molecule?
Answer: The IC50 was 0.762 µM.

Question: And the IC50 (NCI-H1770)?
Answer: The IC50 was greater than 1.28 µM.

Question: What about the IC50 (EW-11) of the same molecule?
Answer: Its IC50 is greater than 1.28 µM.

Question: What about the IC50 (C2BBe1) of the same molecule?
Answer: Its IC50 is 0.0831 µM.

Question: And the IC50 (J-RT3-T3-5)?
Answer: Its IC50 is greater than 1.28 µM.

Question: And the IC50 (HAL-01)?
Answer: Its IC50 is greater than 1.28 µM.

Question: And the IC50 (HDLM-2)?
Answer: Its IC50 is greater than 1.28 µM.

Question: What about the IC50 (TE-1) of the same molecule?
Answer: Its IC50 is 0.105 µM.

Question: And the IC50 (KE-37)?
Answer: Its IC50 is greater than 1.28 µM.

Question: What about the IC50 (COLO-684) of the same molecule?
Answer: The IC50 was greater than 1.28 µM.

Question: What about the IC50 (no-11) of the same molecule?
Answer: The IC50 was 0.502 µM.

Question: And the IC50 (KM-H2)?
Answer: Its IC50 is greater than 1.28 µM.

Question: And the IC50 (COLO-824)?
Answer: The IC50 was greater than 1.28 µM.

Question: And the IC50 (ATN-1)?
Answer: The IC50 was greater than 1.28 µM.

Question: What about the IC50 (SHP77) of the same molecule?
Answer: Its IC50 is greater than 1.28 µM.

Question: And the IC50 (NCI-H747)?
Answer: The IC50 was 0.0836 µM.

Question: What about the IC50 (NB10) of the same molecule?
Answer: The IC50 was greater than 1.28 µM.

Question: What about the IC50 (EW-3) of the same molecule?
Answer: Its IC50 is greater than 1.28 µM.

Question: What about the IC50 (HD-MY-Z) of the same molecule?
Answer: Its IC50 is greater than 1.28 µM.

Question: What about the IC50 (MHH-NB-11) of the same molecule?
Answer: The IC50 was greater than 1.28 µM.

Question: And the IC50 (SW684)?
Answer: The IC50 was 0.35 µM.

Question: What about the IC50 (TGBC1TKB) of the same molecule?
Answer: The IC50 was 0.0616 µM.

Question: What about the IC50 (SW872) of the same molecule?
Answer: The IC50 was 0.0416 µM.

Question: What about the IC50 (ES8) of the same molecule?
Answer: The IC50 was greater than 1.28 µM.

Question: What about the IC50 (KNS-81-FD) of the same molecule?
Answer: The IC50 was greater than 1.28 µM.

Question: What about the IC50 (K5) of the same molecule?
Answer: The IC50 was 0.165 µM.

Question: And the IC50 (NCI-H69)?
Answer: Its IC50 is greater than 1.28 µM.

Question: What about the IC50 (A498) of the same molecule?
Answer: The IC50 was 0.0728 µM.

Question: What about the IC50 (LAMA-84) of the same molecule?
Answer: The IC50 was less than 0.005 µM.

Question: What about the IC50 (SW 954) of the same molecule?
Answer: The IC50 was 0.0293 µM.

Question: And the IC50 (KU812 cell line)?
Answer: Its IC50 is 0.119 µM.

Question: What about the IC50 (ES6) of the same molecule?
Answer: Its IC50 is 0.0319 µM.

Question: What about the IC50 (IST-MEL1) of the same molecule?
Answer: Its IC50 is 0.135 µM.

Question: What about the IC50 (COR-L88) of the same molecule?
Answer: The IC50 was greater than 1.28 µM.

Question: What about the IC50 (TE-12) of the same molecule?
Answer: The IC50 was 0.0186 µM.

Question: What about the IC50 (no-10) of the same molecule?
Answer: The IC50 was 0.319 µM.

Question: And the IC50 (HEL)?
Answer: Its IC50 is greater than 1.28 µM.

Question: And the IC50 (A704)?
Answer: Its IC50 is 0.0149 µM.

Question: And the IC50 (SF-126)?
Answer: The IC50 was 0.354 µM.

Question: What about the IC50 (MPP-89) of the same molecule?
Answer: Its IC50 is 0.0405 µM.

Question: What about the IC50 (SNU1) of the same molecule?
Answer: Its IC50 is greater than 1.28 µM.

Question: And the IC50 (GI-1)?
Answer: Its IC50 is greater than 1.28 µM.

Question: And the IC50 (AM-38)?
Answer: Its IC50 is greater than 1.28 µM.

Question: And the IC50 (COLO-668)?
Answer: Its IC50 is greater than 1.28 µM.

Question: What about the IC50 (QIMR-WIL) of the same molecule?
Answer: Its IC50 is 0.706 µM.

Question: What about the IC50 (LNCaP-Clone-FGC) of the same molecule?
Answer: The IC50 was greater than 1.28 µM.

Question: And the IC50 (IST-MES1)?
Answer: The IC50 was 0.0855 µM.

Question: What about the IC50 (RH-1) of the same molecule?
Answer: Its IC50 is greater than 1.28 µM.

Question: And the IC50 (SCH)?
Answer: Its IC50 is greater than 1.28 µM.

Question: And the IC50 (SBC-1)?
Answer: The IC50 was greater than 1.28 µM.

Question: And the IC50 (D-263MG)?
Answer: Its IC50 is 0.362 µM.

Question: And the IC50 (TE-5)?
Answer: The IC50 was greater than 1.28 µM.

Question: And the IC50 (COLO-800)?
Answer: The IC50 was greater than 1.28 µM.

Question: And the IC50 (EW-13)?
Answer: Its IC50 is greater than 1.28 µM.

Question: What about the IC50 (Lu-65) of the same molecule?
Answer: Its IC50 is greater than 1.28 µM.

Question: And the IC50 (DOHH-2)?
Answer: The IC50 was 0.0172 µM.

Question: What about the IC50 (SK-MEL-2) of the same molecule?
Answer: The IC50 was greater than 1.28 µM.

Question: And the IC50 (NCI-H23)?
Answer: Its IC50 is greater than 1.28 µM.

Question: What about the IC50 (U-87 MG) of the same molecule?
Answer: The IC50 was greater than 1.28 µM.

Question: What about the IC50 (ETK-1) of the same molecule?
Answer: The IC50 was 0.0283 µM.

Question: And the IC50 (EKVX)?
Answer: The IC50 was greater than 1.28 µM.
